Experimental data reported in patent US10030047B2 (Hoffmann-La Roche Inc., priority 2015, dated 2018).
Converted amounts (≈) assume the structure as drawn.

These molecules were tested on A. baumannii strain ATCC19606 (assay: Minimum inhibitory concentration (MIC) determination, microbroth dilution (CLSI)). Conditions: Acinetobacter baumannii; A. baumannii ATCC19606; CAMHB; read after 20 hours; >=80% growth inhibition; read-out: ATCC19606 MIC.
Assay type: cell-based
Experimental: The in vitro antimicrobial activity of the compounds was determined through microbroth minimum inhibitory concentration (MIC) methodology performed according to the Clinical and Laboratory Standard Institute guidelines (CLSI—M07-A9 Jan. 2012. Methods for Dilution Antimicrobial Susceptibility Tests for Bacteria That Grow Aerobically; Approved Standard—Ninth Edition, Clinical and Laboratory Standards Institute, Wayne/PA, US and the CLSI—M100-S24 Jan. 2014. Performance Standards for Antimicrobial Susceptibility Testing; Approved Standard—Fourth Informational Supplement, Clinical and Laboratory Standards Institute, Wayne/PA, US).
The compound stock solution was freshly prepared at 10× the required top concentration for the MIC determination, i.e. at 1280 mg/L, by reconstitution of the dry compound in 50:50 water:DMSO.
Polystyrene non-treated 96 wells microtiter plates were used for preparing panel containing compound serial twofold diluted at two times the final testing concentration (e.g. range from 64 to 0.06 μg/ml) in cation adjusted Mueller Hinton broth medium (CAMHB).
Inoculum was prepared by the “direct colony suspension method”. Colonies of A. baumannii ATCC19606 or clinical isolates were suspended in saline solution and adjusted to 0.5 McFarland, diluted 100 times in CAMHB broth and 50 μl added to each well (final concentration of cells ˜5×10^(5) CFU/ml and Final volume/well of 100 μl). Microtiter plates were sealed and incubated at 35±2° C.
MICs values were read after 20 hours of incubation and recorded as the lowest concentration of the antimicrobial that inhibits more or equal to 80% of growth of the organism as detected by the unaided eye and using a microtiter plate optical density reader (OD 600 nm).
Tables 2, 3, 4 and 5 provide the minimum inhibitory concentration (MIC) in microgram per milliliter of the compounds of present invention obtained against the A. baumannii strain ATCC19606 (Tables 2, 3, 4 and 5).
In the case of CN1C(=O)[C@H](CCCCN)NC(=O)[C@H](CCCN)NCc2ccccc2Sc2ccc(Cl)cc2CNC(=O)[C@@H]1Cc1cn(C)c2cc(Cl)ccc12 [Example 19, (12S,15S,18S)-15-(4-Amino-butyl)-18-(3-amino-propyl)-6-chloro-12-(6-chloro-1-methyl-1H-indol-3-ylmethyl)-13-methyl-2-thia-10,13,16,19-tetraaza-tricyclo[19.4.0.0*3,8*]pentacosa-1(21),3,5,7,22,24-hexaene-11,14,17-trione], the MIC is reported as 16 µg/mL (≈ 21.3 µM). C[C@@H]1NC(=O)[C@H](Cc2c[nH]c3ccccc23)N(C)C(=O)[C@H](CCCCN)NC(=O)[C@H](CCCN)NCc2ccccc2Sc2ccc(Cl)cc21 [Example 20, (9S,12S,15S,18S)-15-(4-Amino-butyl)-18-(3-amino-propyl)-6-chloro-12-(1H-indol-3-ylmethyl)-9,13-dimethyl-2-thia-10,13,16,19-tetraaza-tricyclo[19.4.0.0*3,8*]pentacosa-1(25),3,5,7,21,23-hexaene-11,14,17-trione] gave an MIC of 2 µg/mL (≈ 2.78 µM). CN1C(=O)[C@H](CCCCN)NC(=O)[C@H](CCCN)NCc2ccccc2Sc2ccc(Cl)c(Cl)c2CNC(=O)[C@@H]1Cc1c[nH]c2ccccc12 [Example 21, (12S,15S,18S)-15-(4-Amino-butyl)-18-(3-amino-propyl)-6,7-dichloro-12-(1H-indol-3-ylmethyl)-13-methyl-2-thia-10,13,16,19-tetraaza-tricyclo[19.4.0.0*3,8*]pentacosa-1(25),3,5,7,21,23-hexaene-11,14,17-trione] was tested, and the MIC was 1 µg/mL (≈ 1.35 µM). Molecule CN1C(=O)[C@H](CCCCN)NC(=O)[C@H](CCCN)NCc2ccccc2Sc2cccc(Cl)c2CNC(=O)[C@@H]1Cc1c[nH]c2ccccc12 [Example 22, (12S,15S,18S)-15-(4-Amino-butyl)-18-(3-amino-propyl)-7-chloro-12-(1H-indol-3-ylmethyl)-13-methyl-2-thia-10,13,16,19-tetraaza-tricyclo[19.4.0.0*3,8*]pentacosa-1(25),3,5,7,21,23-hexaene-11,14,17-trione] has an MIC of 32 µg/mL (≈ 45.4 µM). CN1C(=O)[C@H](CCCCN)NC(=O)[C@H](CCCN)NCc2ccccc2Sc2c(Cl)ccc(Cl)c2CNC(=O)[C@@H]1Cc1c[nH]c2ccccc12 [Example 23, (12S,15S,18S)-15-(4-Amino-butyl)-18-(3-amino-propyl)-4,7-dichloro-12-(1H-indol-3-ylmethyl)-13-methyl-2-thia-10,13,16,19-tetraaza-tricyclo[19.4.0.0*3,8*]pentacosa-1(25),3,5,7,21,23-hexaene-11,14,17-trione] gave an MIC of 0.5 µg/mL (≈ 0.677 µM). With CN1C(=O)[C@H](CCCCN)NC(=O)[C@H](CCCN)NCc2ccccc2Sc2c(Cl)ccc(C(F)(F)F)c2CNC(=O)[C@@H]1Cc1c[nH]c2ccccc12 [Example 24, (12S,15S,18S)-15-(4-Amino-butyl)-18-(3-amino-propyl)-4-chloro-12-(1H-indol-3-ylmethyl)-13-methyl-7-trifluoromethyl-2-thia-10,13,16,19-tetraaza-tricyclo[19.4.0.0*3,8*]pentacosa-1(25),3,5,7,21,23-hexaene-11,14,17-trione] the MIC was 1 µg/mL (≈ 1.29 µM). With CN1C(=O)[C@H](CCCCN)NC(=O)[C@H](CCCN)NCc2ccccc2Sc2c(Cl)cc(C(F)(F)F)cc2CNC(=O)[C@@H]1Cc1c[nH]c2ccccc12 [Example 25, (12S,15S,18S)-15-(4-Amino-butyl)-18-(3-amino-propyl)-4-chloro-12-(1H-indol-3-ylmethyl)-13-methyl-6-trifluoromethyl-2-thia-10,13,16,19-tetraaza-tricyclo[19.4.0.0*3,8*]pentacosa-1(25),3,5,7,21,23-hexaene-11,14,17-trione] the MIC was 1 µg/mL (≈ 1.29 µM). Molecule CN1C(=O)[C@H](CCCCN)NC(=O)[C@H](CCCN)NCc2ccccc2Sc2c(Cl)ccc(F)c2CNC(=O)[C@@H]1Cc1c[nH]c2ccccc12 [Example 26, (12S,15S,18S)-15-(4-Amino-butyl)-18-(3-amino-propyl)-4-chloro-7-fluoro-12-(1H-indol-3-ylmethyl)-13-methyl-2-thia-10,13,16,19-tetraaza-tricyclo[19.4.0.0*3,8*]pentacosa-1(25),3,5,7,21,23-hexaene-11,14,17-trione] has an MIC of 1 µg/mL (≈ 1.38 µM). CN1C(=O)[C@H](CCCCN)NC(=O)[C@H](CCCN)NCc2cc(F)ccc2Sc2c(Cl)cc(Cl)cc2CNC(=O)[C@@H]1Cc1c[nH]c2ccccc12 [Example 27, (12S,15S,18S)-15-(4-Amino-butyl)-18-(3-amino-propyl)-4,6-dichloro-23-fluoro-12-(1H-indol-3-ylmethyl)-13-methyl-2-thia-10,13,16,19-tetraaza-tricyclo[19.4.0.0*3,8*]pentacosa-1(25),3,5,7,21,23-hexaene-11,14,17-trione] showed an MIC of 2 µg/mL (≈ 2.64 µM). CN1C(=O)[C@H](CCCCN)NC(=O)[C@H](CCCN)NCc2cccnc2Sc2c(Cl)cccc2CNC(=O)[C@@H]1Cc1c[nH]c2ccccc12 [Example 28, (11S,14S,17S)-14-(4-Amino-butyl)-11-(3-amino-propyl)-25-chloro-17-(1H-indol-3-ylmethyl)-16-methyl-2-thia-4,10,13,16,19-pentaaza-tricyclo[19.4.0.0*3,8*]pentacosa-1(25),3,5,7,21,23-hexaene-12,15,18-trione] was tested, and the MIC was 2 µg/mL (≈ 2.84 µM). CN1C(=O)[C@H](CCCCN)NC(=O)[C@H](CCCN)NCc2ccccc2Sc2c(F)ccc(F)c2CNC(=O)[C@@H]1Cc1c[nH]c2ccccc12 [Example 29, (12S,15S,18S)-15-(4-Amino-butyl)-18-(3-amino-propyl)-4,7-difluoro-12-(1H-indol-3-ylmethyl)-13-methyl-2-thia-10,13,16,19-tetraaza-tricyclo[19.4.0.0*3,8*]pentacosa-1(21),3,5,7,22,24-hexaene-11,14,17-trione] gave an MIC of 2 µg/mL (≈ 2.83 µM). With CN1C(=O)[C@H](CCCCN)NC(=O)[C@H](CCCN)NCc2ccccc2Sc2c(F)cccc2CNC(=O)[C@@H]1Cc1c[nH]c2ccccc12 [Example 30, (12S,15S,18S)-15-(4-Amino-butyl)-18-(3-amino-propyl)-4-fluoro-12-(1H-indol-3-ylmethyl)-13-methyl-2-thia-10,13,16,19-tetraaza-tricyclo[19.4.0.0*3,8*]pentacosa-1(21),3,5,7,22,24-hexaene-11,14,17-trione] the MIC was 2 µg/mL (≈ 2.91 µM). CN1C(=O)[C@H](CCCCN)NC(=O)[C@H](CCCN)NCc2ccccc2Sc2c(cc(Cl)cc2C(F)(F)F)CNC(=O)[C@@H]1Cc1c[nH]c2ccccc12 [Example 31, (12S,15S,18S)-15-(4-Amino-butyl)-18-(3-amino-propyl)-6-chloro-12-(1H-indol-3-ylmethyl)-13-methyl-4-trifluoromethyl-2-thia-10,13,16,19-tetraaza-tricyclo[19.4.0.0*3,8*]pentacosa-1(25),3,5,7,21,23-hexaene-11,14,17-trione] showed an MIC of 1 µg/mL (≈ 1.29 µM). Cc1[nH]c2ccccc2c1C[C@H]1C(=O)NCc2ccccc2Sc2ccccc2CN[C@@H](CCCN)C(=O)N[C@@H](CCCCN)C(=O)N1C [Example 32, (12S,15S,18S)-15-(4-Amino-butyl)-18-(3-amino-propyl)-13-methyl-12-(2-methyl-1H-indol-3-ylmethyl)-2-thia-10,13,16,19-tetraaza-tricyclo[19.4.0.0*3,8*]pentacosa-1(21),3,5,7,22,24-hexaene-11,14,17-trione] was tested, and the MIC was 2 µg/mL (≈ 2.92 µM). Molecule CN1C(=O)[C@H](CCCCN)NC(=O)[C@H](CCCN)NCc2cccnc2Sc2ccc(Cl)cc2CNC(=O)[C@@H]1Cc1c[nH]c2ccccc12 [Example 33, (11S,14S,17S)-14-(4-Amino-butyl)-11-(3-amino-propyl)-23-chloro-17-(1H-indol-3-ylmethyl)-16-methyl-2-thia-4,10,13,16,19-pentaaza-tricyclo[19.4.0.0*3,8*]pentacosa-1(25),3,5,7,21,23-hexaene-12,15,18-trione] has an MIC of 1 µg/mL (≈ 1.42 µM). Work on CN1C(=O)[C@H](CCCCN)NC(=O)[C@H](CCCN)NCc2cccnc2Sc2cccc(Cl)c2CNC(=O)[C@@H]1Cc1c[nH]c2ccccc12 [Example 34, (11S,14S,17S)-14-(4-Amino-butyl)-11-(3-amino-propyl)-22-chloro-17-(1H-indol-3-ylmethyl)-16-methyl-2-thia-4,10,13,16,19-pentaaza-tricyclo[19.4.0.0*3,8*]pentacosa-1(25),3,5,7,21,23-hexaene-12,15,18-trione] yielded an MIC of 16 µg/mL (≈ 22.7 µM). Work on CN1C(=O)[C@H](CCCCN)NC(=O)[C@H](CCCN)NCc2c(F)cccc2Sc2ccccc2CNC(=O)[C@@H]1Cc1c[nH]c2ccccc12 [Example 35, (12S,15S,18S)-15-(4-Amino-butyl)-18-(3-amino-propyl)-22-fluoro-12-(1H-indol-3-ylmethyl)-13-methyl-2-thia-10,13,16,19-tetraaza-tricyclo[19.4.0.0*3,8*]pentacosa-1(21),3,5,7,22,24-hexaene-11,14,17-trione] yielded an MIC of 8 µg/mL (≈ 11.6 µM). Molecule CN1C(=O)[C@H](CCCCN)NC(=O)[C@H](CCCN)NCc2cccnc2Sc2c(cccc2C(F)(F)F)CNC(=O)[C@@H]1Cc1c[nH]c2ccccc12 [Example 36, (11S,14S,17S)-14-(4-Amino-butyl)-11-(3-amino-propyl)-17-(1H-indol-3-ylmethyl)-16-methyl-25-trifluoromethyl-2-thia-4,10,13,16,19-pentaaza-tricyclo[19.4.0.0*3,8*]pentacosa-1(25),3,5,7,21,23-hexaene-12,15,18-trione] has an MIC of 1 µg/mL (≈ 1.35 µM).
